From patent US11926628B2 (Gilead Sciences, Inc., priority 2021, dated 2024) come the findings set out here.

The subject of assay [1] is Jurkat NFκB-luciferase cells. Nature of the assay: Jurkat NFκB-Luciferase Assay. The assay is classed as cell-based. As to conditions: Homo sapiens; Jurkat NFκB-luciferase cells activated with anti-CD3 antibody (OKT3), 2.5 hrs at 37° C.; geometric mean; read-out: DGK NFKb Luciferase EC50. On the procedure: The activity of compounds was tested in a cell based NFκB reporter assay. Jurkat cells that are stably expressing a luciferase reporter construct under the transcriptional control of a NFκB reporter element were activated with an anti-CD3 antibody and luciferase levels were measured with a bioluminescence readout. An increase in the levels of bioluminescence was indicative of enhanced T-cell activation following DGKα inhibition by the compound.
Flat-bottom polystyrene plates (384-well, tissue culture treated) were coated overnight at 4° C. with 20 ul/well of a solution of phosphate-buffered saline supplemented with 5 ug/ml anti-CD3 antibody (clone OKT3, Biolegend). The day after, the excess antibody was washed out five times with 100 ul/well of assay medium (RPMI supplemented with 10% fetal bovine serum) using a Biotek EL406 instrument and leaving 20 ul of residual volume in each well. Jurkat NFκB-luciferase cells (Promega #) were harvested and diluted to 1 million cells/ml in assay medium. Sixty nanoliters of test compound dissolved in DMSO at various concentrations were dispensed into 384-well v-bottom polypropylene plates (Greiner) using a Labcyte Echo instrument. Thirty microliters of medium containing the Jurkat NFκB-luciferase cells were then dispensed using a Biotek MicroFlo instrument in each well of the compound-containing plate. The medium/cell/compound mixture was mixed with a Bravo instrument and 20 ul/well of the mixture was transferred to the anti-CD3-coated plate. The assay mixture was then incubated for 2.5 hrs at 37° C. followed by equilibration at 25° C. for 30 min. Forty microliters of One-Glo Ex (Promega) was then added to the assay mixture and luciferase activity was read on a Envision plate reader 7 minutes later.
Bioluminescence data were normalized based on maximum enhancement (1 micromolar of compound) and on basal activation (DMSO) controls. Least squares curve fittings were performed using a four-parameter variable slope nonlinear regression model. EC50 is defined as the concentration of compound required to produce 50% of maximum NFκB luciferase signal. EC50 values from multiple experiments were averaged by geometric mean and the standard deviation was calculated.

A further assay deals with human DGKα (Homo sapiens (Human), UniProt P23743). Nature of the assay: DGKα Biochemical Activity Assay (ADP-Glo). The following applies: recombinant DGKα 1 nM, 100 μM ATP, 18:1 DAG/POPS/octylglucoside micelles, 1 hour at 25° C.; geometric mean; read-out: HTBS DGKa 1X ATP KM IC50. An excerpt: Alternatively, the enzymatic activity of human DGKα was monitored in a biochemical assay in the presence or absence of compounds and using micelles containing 18:1 Diacylglycerol (DAG), 16:0-18:1 PS (POPS) and Octylglucoside as substrate. DGKα activity led to conversion of DAG and ATP to Phosphatidic Acid (PA) and ADP. Levels of ADP were monitored by bioluminescence using the ADP-Glo Kinase Assay (Promega) and were indicative of DGKα activity.
Chain of human DGKα (P23743 whole entry): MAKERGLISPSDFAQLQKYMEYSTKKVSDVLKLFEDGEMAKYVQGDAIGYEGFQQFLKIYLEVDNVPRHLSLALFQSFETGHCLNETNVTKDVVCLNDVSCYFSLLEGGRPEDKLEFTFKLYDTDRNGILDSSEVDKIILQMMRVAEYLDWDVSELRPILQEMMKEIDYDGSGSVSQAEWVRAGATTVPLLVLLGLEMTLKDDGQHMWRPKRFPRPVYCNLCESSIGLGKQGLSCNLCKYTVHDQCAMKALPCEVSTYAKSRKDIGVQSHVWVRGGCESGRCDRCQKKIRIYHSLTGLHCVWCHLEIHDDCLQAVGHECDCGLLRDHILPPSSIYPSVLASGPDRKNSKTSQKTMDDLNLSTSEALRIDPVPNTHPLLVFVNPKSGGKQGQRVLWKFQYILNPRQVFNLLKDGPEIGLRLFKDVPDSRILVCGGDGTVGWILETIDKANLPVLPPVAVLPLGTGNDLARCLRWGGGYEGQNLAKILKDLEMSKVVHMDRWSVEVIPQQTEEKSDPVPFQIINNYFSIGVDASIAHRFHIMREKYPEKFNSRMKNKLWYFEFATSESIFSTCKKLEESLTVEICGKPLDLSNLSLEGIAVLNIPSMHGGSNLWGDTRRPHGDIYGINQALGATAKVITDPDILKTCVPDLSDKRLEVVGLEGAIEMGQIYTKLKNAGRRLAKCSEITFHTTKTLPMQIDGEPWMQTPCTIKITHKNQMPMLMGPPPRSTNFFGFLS
Ten nanoliters of test compound dissolved in DMSO at various concentrations were dispensed into a 384-well low volume nonbinding service white plates (Corning #3824) using a Labcyte Echo instrument. Recombinant DGKα (Carna Biosciences) in assay buffer (5 μL in 50 mM MOPS [3-(N-morpholino) propanesulfonic acid], pH 7.2; 0.0025% Triton X-100; 1 mM dithiothreitol; 5 mM MgCl2, 200 μM ATP) was added to the compound-containing plate and was incubated for 15 minutes at 25° C. A substrate solution (5 μL in 1.7 mM 1,2-dioleoyl-sn-glycerol [18:1 DAG], 13.5 mM 1-palmitoyl-2-oleoyl-sn-glycero-3-phospho-L-serine [16:0-18:1 PS](POPS), 2 μM CaCl2, 100 mM Octylglucoside (OG), 1 mM DTT) (obtained from Carna Biosciences) diluted in DGK ALPHA assay buffer was then added to start the reaction. Final concentrations were 1 nM DGKα, 100 μM ATP, 1 μM calcium chloride, 0.85 mM 1,2-dioleoyl-sn-glycerol (18:1 DAG), 6.75 mM 1-palmitoyl-2-oleoyl-sn-glycero-3-phospho-L-serine (16:0-18:1 PS) (POPS), 1 μM CaCl2), 50 mM Octylglucoside (OG) and 5 mM MgCl2. The reaction mixture was incubated at 25° C. for 1 hour. ADP-Glo Reagent (10 μL, 10 mM Mg added) provided by the kit was added to each well and incubated at 25° C. for 40 minutes. Then, 20 μL of Kinase Detection Reagent was added and incubated at 25° C. for 40 minutes. Luciferase activity of each well was measured via luminescence on an Envision plate reader (PerkinElmer).
Data were normalized based on maximum inhibition (50 μM of kinase inhibitor CU3) and no inhibition (DMSO) controls. Least squares curve fittings were performed using a four-parameter variable slope nonlinear regression model. IC50 was defined as the concentration of compound required to inhibit 50% of maximum activity. IC50 values from multiple experiments were averaged by geometric mean and the standard deviation was calculated.
In general terms: In ADP-Glo the light output rises with the ADP produced.

Consider `CN(c1cc(F)cc(C#CC2(C(F)(F)F)CC2)c1)c1nc2nncn2c2ncc(F)cc12` [Example 156, 3-fluoro-N-(3-fluoro-5-((1-(trifluoromethyl)cyclopropyl)ethynyl)phenyl)-N-methylpyrido[3,2-e][1,2,4]triazolo[4,3-a]pyrimidin-5-amine], for which the EC50 in assay [1] was found to be 2.69 nM. For the same compound, on human DGKα, the IC50 is 10.7 nM.
`Cc1nnc2nc(N3CCCc4c3ccnc4C#CC(C)(C)C(F)(F)F)c3c(F)cncc3n12` [Example 30, 6-fluoro-1-methyl-5-(5-(4,4,4-trifluoro-3,3-dimethylbut-1-yn-1-yl)-3,4-dihydro-1,6-naphthyridin-1(2H)-yl)pyrido[4,3-e][1,2,4]triazolo[4,3-a]pyrimidine]: the EC50 in assay [1] turned out to be 13.2 nM. In addition, the IC50 on human DGKα was found to be 24.8 nM.
For `CN(c1cc(F)cc(C#CC2(C)CC2)c1)c1nc2nncn2c2cncc(F)c12` [Example 91, 10-fluoro-N-[3-fluoro-5-[2-(1-methylcyclopropyl)ethynyl]phenyl]-N-methyl-2,4,5,7,12-pentazatricyclo[7.4.0.02,6]trideca-1(13),3,5,7,9,11-hexaen-8-amine] the same measures were 1.25 nM and 6.25 nM.
Consider `Cc1nnc2nc(N3CCCCc4c(C#CC5CC5)cccc43)c3c(F)cncc3n12` [Example 68, 5-(6-(cyclopropylethynyl)-2,3,4,5-tetrahydro-1H-benzo[b]azepin-1-yl)-6-fluoro-1-methylpyrido[4,3-e][1,2,4]triazolo[4,3-a]pyrimidine], for which the EC50 in assay [1] is 1.19 nM. Also, the concentration for half-maximal inhibition (IC50) on human DGKα is 7.67 nM.
The matching figures for `CN(c1cccc(C#CC2(C(F)(F)F)CC2)c1)c1nc2nncn2c2nc(N)ccc12` [Example 121, N5-methyl-N5-(3-((1-(trifluoromethyl)cyclopropyl)ethynyl)phenyl)pyrido[3,2-e][1,2,4]triazolo[4,3-a]pyrimidine-2,5-diamine]: 6.93 nM and 46.2 nM.
Take `Cc1nnc2nc(N3CCCc4c(C#CC(C)(C)C#N)cncc43)c3c(F)cncc3n12` [Example 37, 4-(1-(6-fluoro-1-methylpyrido[4,3-e][1,2,4]triazolo[4,3-a]pyrimidin-5-yl)-1,2,3,4-tetrahydro-1,7-naphthyridin-5-yl)-2,2-dimethylbut-3-ynenitrile]: the EC50 in assay [1] was found to be 54.9 nM. Also, the IC50 on human DGKα was 52.9 nM.
For `Cc1nnc2nc(N3CCCCc4c(Br)cccc43)c3c(F)cncc3n12` [Example 69, 5-(6-bromo-2,3,4,5-tetrahydro-1H-benzo[b]azepin-1-yl)-6-fluoro-1-methylpyrido[4,3-e][1,2,4]triazolo[4,3-a]pyrimidine] the same measures were 13.9 nM and 220 nM.
For `CC(C)(O)C#Cc1cccc2c1CCCN2c1nc2nncn2c2cncc(F)c12` [Example 85, 4-[1-(10-fluoro-2,4,5,7,12-pentazatricyclo[7.4.0.02,6]trideca-1(13),3,5,7,9,11-hexaen-8-yl)-3,4-dihydro-2H-quinolin-5-yl]-2-methyl-but-3-yn-2-ol] the same measures were 12.7 nM and 13.4 nM.
Regarding `Cc1nnc2nc(N(CC(F)F)c3cc(F)cc(C#CC(C)(C)C(F)(F)F)c3)c3cc(F)cnc3n12` [Example 103, N-(2,2-difluoroethyl)-3-fluoro-N-(3-fluoro-5-(4,4,4-trifluoro-3,3-dimethylbut-1-yn-1-yl)phenyl)-9-methylpyrido[3,2-e][1,2,4]triazolo[4,3-a]pyrimidin-5-amine], in assay [1], the EC50 was 1.64 nM. Moreover, the IC50 at human DGKα is 9.34 nM.
The matching figures for `CCN(c1cc(F)cc(C#CC2(C)CC2)c1)c1nc2nncn2c2cncc(F)c12` [Example 89, N-ethyl-10-fluoro-N-[3-fluoro-5-[2-(1-methylcyclopropyl)ethynyl]phenyl]-2,4,5,7,12-pentazatricyclo[7.4.0.02,6]trideca-1(13),3,5,7,9,11-hexaen-8-amine]: 0.655 nM and 6.18 nM.
For `CN(c1cccc(-c2ccc(S(F)(F)(F)(F)F)cc2)c1)c1nc2nncn2c2nc(N)ccc12` [Example 117, N5-methyl-N5-(4′-(pentafluoro-16-sulfaneyl)-[1,1′-biphenyl]-3-yl)pyrido[3,2-e][1,2,4]triazolo[4,3-a]pyrimidine-2,5-diamine] the same measures were 4.88 nM and 30.4 nM.
For `CC1(C#Cc2cccc3c2CCCN3c2nc3nncn3c3cncc(F)c23)CC1` [Example 86, 10-fluoro-8-[5-[2-(1-methylcyclopropyl)ethynyl]-3,4-dihydro-2H-quinolin-1-yl]-2,4,5,7,12-pentazatricyclo[7.4.0.02,6]trideca-1(13),3,5,7,9,11-hexaene] the same measures were 0.518 nM and 3.39 nM.
As for `CN(c1cccc(-c2ccc(C(F)F)cc2)c1)c1nc2nncn2c2nc(N)ccc12` [Example 131, N5-(4′-(difluoromethyl)-[1,1′-biphenyl]-3-yl)-N5-methylpyrido[3,2-e][1,2,4]triazolo[4,3-a]pyrimidine-2,5-diamine], the EC50 in assay [1] was found to be 7.69 nM. For the same compound, the IC50 on human DGKα came to 11.5 nM.
The matching figures for `Cc1nnc2nc(N3CCCc4c(C#CC(C)(C)O)cccc43)c3c(F)cncc3n12` [Example 28, 4-(1-(6-fluoro-1-methylpyrido[4,3-e][1,2,4]triazolo[4,3-a]pyrimidin-5-yl)-1,2,3,4-tetrahydroquinolin-5-yl)-2-methylbut-3-yn-2-ol]: 33.6 nM and 11.9 nM.
The matching figures for `Cc1nnc2nc(N3CCOCc4c(C#CC5(C(F)(F)F)CC5)cccc43)c3c(F)cncc3n12` [Example 78, 1-(6-fluoro-1-methylpyrido[4,3-e][1,2,4]triazolo[4,3-a]pyrimidin-5-yl)-6-((1-(trifluoromethyl)cyclopropyl)ethynyl)-1,2,3,5-tetrahydrobenzo[e][1,4]oxazepine]: 1.95 nM and 4.34 nM.
For `Cc1nnc2nc(N3CCOCc4c(C#CC5(C)CC5)cccc43)c3c(F)cncc3n12` [Example 79, 1-(6-fluoro-1-methylpyrido[4,3-e][1,2,4]triazolo[4,3-a]pyrimidin-5-yl)-6-((1-methylcyclopropyl)ethynyl)-1,2,3,5-tetrahydrobenzo[e][1,4]oxazepine] the same measures were 2 nM and 2.28 nM.
`Cc1nnc2nc(N3CCOCc4c(C#CC(C)(C)O)cccc43)c3c(F)cncc3n12` [Example 77, 4-(1-(6-fluoro-1-methylpyrido[4,3-e][1,2,4]triazolo[4,3-a]pyrimidin-5-yl)-1,2,3,5-tetrahydrobenzo[e][1,4]oxazepin-6-yl)-2-methylbut-3-yn-2-ol]: the EC50 in assay [1] was 130 nM. Further, the IC50 on human DGKα was found to be 12.6 nM.
As for `CN(c1cc(F)cc(C#CC(C)(C)C(F)F)c1)c1nc2nnnn2c2ccc(F)cc12` [Example 12], the EC50 in assay [1] is 2.52 nM. In addition, the IC50 on human DGKα stood at 107 nM.

The term EC50 denotes the concentration giving half of the maximal effect. A word on the IC50: it is the concentration that inhibits the measured activity by half.
